Test results taken from PubChem BioAssay (NCI).
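How tested: cells in 96-well plates exposed to compound for 48 hours at five concentrations. The concentration for 50% growth inhibition is given as GI50. TGI denotes the concentration required for complete inhibition of growth.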

What was measured:
Test in all cases: DTP human tumour cell line panel, 48 h
[1] = tested on: MCF7 breast
[2] = tested on: OVCAR-5 ovarian
[3] = tested on: SK-MEL-2 melanoma
[4] = tested on: RPMI-8226 leukemia
[5] = tested on: UO-31 renal
[6] = tested on: MDA-MB-231 breast
[7] = tested on: DU-145 prostate
[8] = tested on: PC-3 prostate
[9] = tested on: HCT-116 colon
[10] = tested on: SR leukemia
[11] = tested on: NCI-H522 lung
[12] = tested on: BT-549 breast
[13] = tested on: CCRF-CEM leukemia
[14] = tested on: NCI-H23 lung
[15] = tested on: CAKI-1 renal
[16] = tested on: NCI-H460 lung
[17] = tested on: SF-268 CNS
[18] = tested on: K-562 leukemia
[19] = tested on: UACC-62 melanoma
[20] = tested on: NCI-H226 lung
[21] = tested on: T-47D breast
[22] = tested on: U251 CNS
[23] = tested on: OVCAR-3 ovarian
[24] = tested on: MDA-MB-435
[25] = tested on: RXF 393 renal
[26] = tested on: TK-10 renal
[27] = tested on: SK-OV-3 ovarian
[28] = tested on: 786-0 renal
[29] = tested on: SW-620 colon
[30] = tested on: MALME-3M melanoma
[31] = tested on: OVCAR-8 ovarian
[32] = tested on: IGROV1 ovarian
[33] = tested on: MOLT-4 leukemia
[34] = tested on: HCC-2998 colon
[35] = tested on: HCT-15 colon
[36] = tested on: SK-MEL-28 melanoma
[37] = tested on: MDA-MB-468 breast
[38] = tested on: SN12C renal
[39] = tested on: SF-295 CNS
[40] = tested on: HS 578T breast
[41] = tested on: EKVX NSCLC
[42] = tested on: SNB-19 CNS
[43] = tested on: HT29 colon
[44] = tested on: KM12 colon
[45] = tested on: UACC-257 melanoma
[46] = tested on: A549 NSCLC
[47] = tested on: HOP-92 NSCLC
[48] = tested on: SNB-75 CNS
[49] = tested on: ACHN renal
[50] = tested on: OVCAR-4 ovarian
[51] = tested on: SF-539 CNS
[52] = tested on: COLO 205 colon
[53] = tested on: HL-60(TB) leukemia
[54] = tested on: HOP-62 NSCLC
[55] = tested on: M14 melanoma
[56] = tested on: SK-MEL-5 melanoma
[57] = tested on: A498 renal
[58] = tested on: LOX IMVI melanoma

SMILES: COc1cccc(-c2c(C#N)c(-c3ccc(Cl)cc3)nc3n[nH]c(-c4ccc(Cl)cc4)c23)c1
- GI50 [1]: 6 µM
- TGI [1]: > 100 µM
- GI50 [2]: 11.2 µM
- TGI [2]: 50.8 µM
- GI50 [3]: 13.9 µM
- TGI [3]: 30.1 µM
- GI50 [4]: 4.44 µM
- TGI [4]: > 100 µM
- GI50 [5]: 2.38 µM
- TGI [5]: 72.7 µM
- GI50 [6]: 12.8 µM
- TGI [6]: 35.1 µM
- GI50 [7]: 21 µM
- TGI [7]: > 100 µM
- GI50 [8]: 3.19 µM
- TGI [8]: > 100 µM
- GI50 [9]: 4.66 µM
- TGI [9]: 26.2 µM
- GI50 [10]: 7.09 µM
- TGI [10]: 50.3 µM
- GI50 [11]: 16.1 µM
- TGI [11]: 92.7 µM
- GI50 [12]: 6.07 µM
- TGI [12]: 27.4 µM
- GI50 [13]: 6.56 µM
- TGI [13]: > 100 µM
- GI50 [14]: 13.6 µM
- TGI [14]: > 100 µM
- GI50 [15]: 7.91 µM
- TGI [15]: 32.9 µM
- GI50 [16]: 13.5 µM
- TGI [16]: 46.7 µM
- GI50 [17]: 14.8 µM
- TGI [17]: > 100 µM
- GI50 [18]: 4.01 µM
- TGI [18]: 78.6 µM
- GI50 [19]: 12.6 µM
- TGI [19]: 29.1 µM
- GI50 [20]: 11.9 µM
- TGI [20]: 49.1 µM
- GI50 [21]: 3.42 µM
- TGI [21]: 77.8 µM
- GI50 [22]: 13.6 µM
- TGI [22]: > 100 µM
- GI50 [23]: 9.27 µM
- TGI [23]: 80 µM
- GI50 [24]: 13.4 µM
- TGI [24]: 37.2 µM
- GI50 [25]: 11.5 µM
- TGI [25]: 79.3 µM
- GI50 [26]: 38 µM
- TGI [26]: > 100 µM
- GI50 [27]: 18.1 µM
- TGI [27]: 98.7 µM
- GI50 [28]: 11.2 µM
- TGI [28]: > 100 µM
- GI50 [29]: 21.2 µM
- TGI [29]: > 100 µM
- GI50 [30]: 11.5 µM
- TGI [30]: 31.7 µM
- GI50 [31]: 20.9 µM
- TGI [31]: > 100 µM
- GI50 [32]: 16 µM
- TGI [32]: 68 µM
- GI50 [33]: 3.45 µM
- TGI [33]: 49.2 µM
- GI50 [34]: 6.14 µM
- TGI [34]: 31 µM
- GI50 [35]: 4.16 µM
- TGI [35]: 27.8 µM
- GI50 [36]: 17.8 µM
- TGI [36]: 74.8 µM
- GI50 [37]: 19.1 µM
- TGI [37]: > 100 µM
- GI50 [38]: 12 µM
- TGI [38]: > 100 µM
- GI50 [39]: 12.1 µM
- TGI [39]: 33 µM
- GI50 [40]: 11.1 µM
- TGI [40]: 89.6 µM
- GI50 [41]: 11.8 µM
- TGI [41]: > 100 µM
- GI50 [42]: 20 µM
- TGI [42]: > 100 µM
- GI50 [43]: 9.76 µM
- TGI [43]: 29.8 µM
- GI50 [44]: 8.81 µM
- TGI [44]: > 100 µM
- GI50 [45]: 22.7 µM
- TGI [45]: 93.3 µM
- GI50 [46]: 15.1 µM
- TGI [46]: > 100 µM
- GI50 [47]: 2.35 µM
- TGI [47]: 9.24 µM
- GI50 [48]: 12.7 µM
- TGI [48]: 64.3 µM
- GI50 [49]: 13.6 µM
- TGI [49]: > 100 µM
- GI50 [50]: 4.96 µM
- TGI [50]: 86.4 µM
- GI50 [51]: 8.28 µM
- TGI [51]: 25.9 µM
- GI50 [52]: 11.3 µM
- TGI [52]: 25.2 µM
- GI50 [53]: 4.77 µM
- TGI [53]: 43.5 µM
- GI50 [54]: 16.4 µM
- TGI [54]: 80.6 µM
- GI50 [55]: 9.82 µM
- TGI [55]: 34.1 µM
- GI50 [56]: 12.4 µM
- TGI [56]: 26.3 µM
- GI50 [57]: 33.3 µM
- TGI [57]: > 100 µM
- GI50 [58]: 10.6 µM
- TGI [58]: 28.9 µM

SMILES: O=C(c1ccc(Cl)cc1)C1[C@H](c2ccc(Br)cc2)[C@@H](c2ccccc2)NC12C(=O)Nc1ccc(Cl)cc12 (some centres not stated)
- GI50 [1]: 1.69 µM
- TGI [1]: 6.82 µM
- GI50 [2]: 5.95 µM
- TGI [2]: 12.6 µM
- GI50 [3]: 5.51 µM
- TGI [3]: 12.1 µM
- GI50 [4]: 1.99 µM
- TGI [4]: 13.2 µM
- GI50 [5]: 1.87 µM
- TGI [5]: 8.68 µM
- GI50 [6]: 4.63 µM
- TGI [6]: 11.3 µM
- GI50 [7]: 5.9 µM
- TGI [7]: 13.6 µM
- GI50 [8]: 2.03 µM
- TGI [8]: 9.08 µM
- GI50 [9]: 0.986 µM
- TGI [9]: 3.01 µM
- GI50 [10]: 1.63 µM
- TGI [10]: 9.55 µM
- GI50 [11]: 4.22 µM
- TGI [11]: 11.8 µM
- GI50 [12]: 2.71 µM
- TGI [12]: 9.33 µM
- GI50 [13]: 2.79 µM
- TGI [13]: 13 µM
- GI50 [14]: 3.98 µM
- TGI [14]: 11.7 µM
- GI50 [15]: 1.42 µM
- TGI [15]: 8.42 µM
- GI50 [16]: 1.66 µM
- TGI [16]: 7.49 µM
- GI50 [17]: 2.88 µM
- TGI [17]: 11.2 µM
- GI50 [18]: 1.64 µM
- TGI [18]: 11.7 µM
- GI50 [19]: 2.21 µM
- TGI [19]: 9.1 µM
- GI50 [20]: 5.3 µM
- TGI [20]: 12.2 µM
- GI50 [21]: 2.13 µM
- TGI [21]: 9.66 µM
- GI50 [22]: 3.58 µM
- TGI [22]: 10.7 µM
- GI50 [23]: 4.02 µM
- TGI [23]: 11 µM
- GI50 [24]: 2.81 µM
- TGI [24]: 9.75 µM
- GI50 [25]: 2.09 µM
- TGI [25]: 9.12 µM
- GI50 [26]: 5.49 µM
- TGI [26]: 12.2 µM
- GI50 [27]: 7.36 µM
- TGI [27]: 17.3 µM
- GI50 [28]: 0.905 µM
- TGI [28]: 1.89 µM
- GI50 [29]: 3.35 µM
- TGI [29]: 10.7 µM
- GI50 [30]: 7.09 µM
- TGI [30]: 13.9 µM
- GI50 [31]: 5.46 µM
- TGI [31]: 12.8 µM
- GI50 [32]: 2.76 µM
- TGI [32]: 9.96 µM
- GI50 [33]: 1.64 µM
- TGI [33]: 8.26 µM
- GI50 [34]: 1.63 µM
- TGI [34]: 7.02 µM
- GI50 [35]: 2.15 µM
- TGI [35]: 8.97 µM
- GI50 [36]: 5.78 µM
- TGI [36]: 12.2 µM
- GI50 [37]: 3.54 µM
- TGI [37]: 11.4 µM
- GI50 [38]: 1.88 µM
- TGI [38]: 7.17 µM
- GI50 [39]: 2.75 µM
- TGI [39]: 10.1 µM
- GI50 [40]: 6.82 µM
- TGI [40]: 23 µM
- GI50 [41]: 4.03 µM
- TGI [41]: 11.7 µM
- GI50 [42]: 5.97 µM
- TGI [42]: 13.2 µM
- GI50 [43]: 1.14 µM
- TGI [43]: 3.22 µM
- GI50 [44]: 2.17 µM
- TGI [44]: 9.98 µM
- GI50 [45]: 6.03 µM
- TGI [45]: 12.8 µM
- GI50 [46]: 2.31 µM
- TGI [46]: 9.53 µM
- GI50 [47]: 2.3 µM
- TGI [47]: 9.31 µM
- GI50 [48]: 2.45 µM
- TGI [48]: 11.6 µM
- GI50 [49]: 2.17 µM
- TGI [49]: 8.6 µM
- GI50 [50]: 3.65 µM
- TGI [50]: 11.9 µM
- GI50 [51]: 6.41 µM
- TGI [51]: 13.1 µM
- GI50 [52]: 5.85 µM
- TGI [52]: 14.2 µM
- GI50 [53]: 4.65 µM
- TGI [53]: 16.7 µM
- GI50 [54]: 6.07 µM
- TGI [54]: 13.1 µM
- GI50 [55]: 2.06 µM
- TGI [55]: 8.82 µM
- GI50 [56]: 7.68 µM
- TGI [56]: 15 µM
- GI50 [57]: 7.48 µM
- TGI [57]: 15 µM
- GI50 [58]: 1.83 µM
- TGI [58]: 10.1 µM
